According to article PMC9762789, “Chromone-based monoamine oxidase B inhibitor with potential iron-chelating activity for the treatment of Alzheimer’s disease” (Journal of Enzyme Inhibition and Medicinal Chemistry, 2022):
Read-outs that look alike come from different tables or passages of the source.

What was measured:
Human MAO-A = molecular target: T1, Human MAO-A (Homo sapiens, UniProt P21397); test: hMAO-A inhibition assay; assay type: biochemical
T1 construct: purchased Sigma-Aldrich
T1 sequence (P21397 1-527): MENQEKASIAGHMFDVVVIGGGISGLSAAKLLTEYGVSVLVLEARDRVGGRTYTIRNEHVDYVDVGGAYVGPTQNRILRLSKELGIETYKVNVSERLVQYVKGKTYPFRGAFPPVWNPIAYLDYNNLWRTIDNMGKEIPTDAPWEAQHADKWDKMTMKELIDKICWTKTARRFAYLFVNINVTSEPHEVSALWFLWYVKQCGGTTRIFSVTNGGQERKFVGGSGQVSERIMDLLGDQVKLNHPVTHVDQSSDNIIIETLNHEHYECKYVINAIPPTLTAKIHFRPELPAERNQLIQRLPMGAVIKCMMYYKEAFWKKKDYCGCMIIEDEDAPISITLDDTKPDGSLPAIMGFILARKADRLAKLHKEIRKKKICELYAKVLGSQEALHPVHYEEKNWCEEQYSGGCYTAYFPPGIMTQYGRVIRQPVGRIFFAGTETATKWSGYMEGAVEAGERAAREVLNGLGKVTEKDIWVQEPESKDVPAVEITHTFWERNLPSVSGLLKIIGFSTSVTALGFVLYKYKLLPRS
Procedure: Further, the inhibitory activity of compounds against hMAO-A isoform was tested and calculated as a selectivity index [Selectivity index (SI): IC50 (hMAO-A)/IC50 (hMAO-B)].
(§1) The reagents and enzymes (Human MAO-B and Human MAO-A) applied in this experiment were purchased from Sigma-Aldrich. According to the manuals, all components (substrate solution and enzyme solution) are diluted and placed aside for use. The detailed process has been mentioned in our early work[34].

MAO-B [1] = molecular target: T2, MAO-B (Homo sapiens, UniProt P27338); test: MAO-B kinetic study (Michaelis-Menten, Lineweaver-Burk, p-tyramine substrate); assay type: biochemical
T2 construct: purchased Sigma-Aldrich
T2 sequence (P27338 1-520): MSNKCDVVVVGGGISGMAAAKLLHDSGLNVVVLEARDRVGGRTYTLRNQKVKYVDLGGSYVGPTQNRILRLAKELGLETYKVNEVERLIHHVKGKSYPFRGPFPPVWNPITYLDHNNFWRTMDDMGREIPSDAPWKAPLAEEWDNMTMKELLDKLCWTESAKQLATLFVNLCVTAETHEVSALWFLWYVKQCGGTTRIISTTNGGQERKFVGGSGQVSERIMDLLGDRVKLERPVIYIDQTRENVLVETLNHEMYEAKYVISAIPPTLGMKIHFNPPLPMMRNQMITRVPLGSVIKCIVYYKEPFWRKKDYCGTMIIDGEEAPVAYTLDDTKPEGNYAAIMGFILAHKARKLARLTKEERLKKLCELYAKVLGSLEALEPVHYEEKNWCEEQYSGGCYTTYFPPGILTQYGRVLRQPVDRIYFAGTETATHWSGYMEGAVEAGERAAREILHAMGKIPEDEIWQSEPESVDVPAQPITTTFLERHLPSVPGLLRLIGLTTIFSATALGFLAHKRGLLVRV
Procedure: Figure 5. Kinetic study and cytotoxicity assay of compound 17d. […] The Cytotoxicity effect of compound 17d on PC-12 cells (C).
To examine the interaction mode of 17d on MAO-B, kinetic studies were carried out. From the Lineweaver–Burk plots (Figure 5(B)), we observed that 17d operated by a non-competitive inhibition mechanism. […] Subsequently, the potential toxic effect of 17d was investigated on pheochromocytoma (PC-12) cells.
To further examine the interaction mode of compound 17d, the type of enzyme inhibition was determined by Michealis–Menten kinetic experiments. The catalytic rates of MAO‐B enzyme were measured at six different concentrations of substrate p‐tyramine (0.05, 0.1, 0.25, 0.5, 1.0, and 1.25 mM) in the absence and in the three different concentrations (33.3, 100, and 300 nM) of compound 17d. The corresponding dose‐response curves and the nonlinear/linear regression analysis were performed using GraphPad Prism version 6 software (Graphpad Software Inc., La Jolla, CA).

[2] = pKa determination by automated spectrophotometric titration; assay type: physicochemical; conditions: 0.1 M KCl solution
MAO-B [3] = molecular target: T2, MAO-B; test: hMAO-B inhibition assay; assay type: biochemical
Procedure: as §1

[4] = test system: scopolamine-induced cognitive impairment mice model; test: Morris water maze test, scopolamine-induced memory impairment; assay type: in vivo, ICR mice
Excerpt: To further explore the in vivo anti-AD effect of compound 17d on the scopolamine-induced cognitive impairment mice model, the Morris Water Maze experiment was selected; data are shown in Figure 7 and Table 5.
Figure 7.
Adult female ICR mice (weight 20–25 g) were obtained from the Zhejiang Academy of Medical Sciences (Hangzhou, China). Scopolamine hydrobromide and Pargyline were purchased from Aladdin Reagents. Memantine was purchased from Energy Chemical. All experiments were approved by the Laboratory Animals Ethical Committee of the Zhejiang University of Technology (No. 20211210103). In this test, mice were prepared as clarified and clear injections, consisting of 20% (2-Hydroxypropyl)-β-cyclodextrin, 10% DMSO, and PBS. […] Mice were administered at a frequency of once a day over 15 d with a fixed dosing schedule. The body weight of mice was measured during the experiment.
After eliminating environmental stress, the behavioural test was performed over the next five days. The mice were trained to find the platform (10 cm diameter) in the circular light-avoidance pool (120 cm diameter and 60 cm height) filled with water (40 cm, depth), which was described in detail in our previous study. All mice received at least one training session daily in four quadrants for four consecutive days before the probe trial of finding the platform within 120 s. Recordings were made with SMART version 3.0 (Panlab, Spain) and processed by Graphpad Prism version 6 software (Graphpad Software Inc., La Jolla, CA, USA).

PAMPA-BBB assay = assay type: in vitro ADME
Excerpt: Good blood–brain barrier (BBB) permeability is the key to exerting drug efficacy in the treatment of central nervous system diseases. To evaluate whether the target compound could penetrate BBB, a parallel artificial membrane permeability assay (PAMPA) was used to predict[32]^,[33]. […] Therefore, due to its potential ability to cross the BBB, compound 17d was selected for subsequent assay.
PAMPA was used to predict the BBB permeability of the screened compound. The detailed process has been mentioned in our early work[32]^,[33].

[5] = iron (III) affinity constants and pFe3+ by spectrophotometric titration; assay type: physicochemical
[6] = DMSO: KCl (0.1 M) = 1:1.5 (v/v)

COc1ccc2c(=O)c(CNCCn3ccc(=O)c(O)c3C)coc2c1 [Compound 17d, 3-Hydroxy-1–(2-(((7-methoxy-4-oxo-4H-chromen-3-yl)methyl)amino)ethyl)-2-methylpyridin-4(1H)-one]
IC50 (Human MAO-A): 739 ± 21.9 nM | inhibition mechanism (MAO-B [1]; Lineweaver–Burk plots): non-competitive | Ki (MAO-B [1]; p-tyramine substrate, GraphPad Prism, read-out: inhibition constant (Ki)): 74.7 nM | pKa ([2]; read-out: pKa1): 2.86 | pKa ([2]; read-out: pKa2): 9.78 | IC50 (MAO-B [3]): 67 ± 4.3 nM | SI: hMAO-B selectivity index = IC50 (hMAO-A)/IC50 (hMAO-B) (MAO-B [3]): 11.0 | inhibition at 0.1 µM (MAO-B [3]; hMAO-B, 100 nM, read-out: Inhibitory rate (%, 100 nM)): 48.9 ± 1.4% | body weight of mice ([4]; 15 mg/kg once a day, after ten days): increased after ten days | scopolamine-induced cognitive impairment ([4]; 15 mg/kg, mice, Morris water maze): significantly ameliorated | Entries to target ([4]; 15 mg/kg, scopolamine 15 mg/kg, ICR mice, mean ± SEM, n = 15): 3.3 ± 0.3 | Papp (PAMPA-BBB assay; PAMPA-BBB, mean ± SEM of eight independent experiments, read-out: Pe ± SEM): 2.73 ± 0.07 ×10⁻⁶ cm/s | CNS (PAMPA-BBB assay; class from PAMPA-BBB Pe): ± (CNS (±) (BBB permeation uncertain); Pe (× 10^−6 cm s^−1) from 2.0 to 4.0) | Log β1 [5, 6]: 13.50 | Log β2 [5, 6]: 25.21 | Log β3 [5, 6]: 35.13 | pFe^3+ ([5]; calculated from Log β values obtained in DMSO: KCl (0.1 M) = 1:1.5 (v/v)): 18.52
